Reference: patent US8343698B2, “Photoreceptor, method of manufacturing same, image formation method, image forming apparatus, and process cartridge” (Ricoh Company, Ltd., priority 2009, dated 2013)

Test system: salmonella of TA1535
Assay: Mutation test (Ames test), plate method
Format: cell-based
Conditions: strain TA1535, plate method, under metabolic activity condition, 625 to 10,000 micro gram/plate, maximum number of colonies divided by colonies in control solvent, tested on the TMPTA monomer of each example
Excerpt: One time absorption refinement treatment is effective but multiple time absorption refinement treatments are preferable to improve the removal effect of the impurities. A number of methods for use in the present invention of measuring the safety of the radical polymerizable monomer can be used. Ames test (mutagen test) is employed in the present invention.
Ames test is a test in which germs are used. The strain among salmonellas used in the test is histidine auxotroph (his−), which cannot synthesize histidine. In the test, the number of colonies of recoveries from histidine auxotroph (his−) to (his+) which can synthesize histidine again as a result of a test material reacting with the strain is counted to determine the mutation property of the material.
Currently, among these strains, TA1535, TA1537, TA100, TA98 or WP2uvrA—are generally used. When TA1535 is used, radical polymerizable monomers in the market are frequently positive. Therefore, TA1535 test is employed in the present invention.
“Mutation test in Ordinance on Safety and Hygiene—Guideline and GLP— (published by Japan industrial Safety & Health Association)” is referred to with regard to the specific test method.
A mutation test (Ames test) is employed to check the safety in the present invention.
A plate method is adopted as the test method in the present invention.
TA1535 is used as the strain and the test is conducted under the condition of metabolic activity.
Add 250 mg of dimethylsulfoxide (DIMSO) to 250 mg of a radical polymerizable monomer having at least 3 functional groups with no charge transport structure followed by ultrasonic treatment for one minute to prepare a clear solution for the test.
5 kinds of densities (625 micro gram/plate, 1,250 micro gram/plate, 2,500 micro gram/plate, 5,000 micro gram/plate, and 10,000 micro gram/plate) of the radical polymerizable monomer having at least 3 functional groups with no charge transport structure are used. Among these, the quotient (referred to as “colony increase multiple” in the present invention) obtained by dividing the maximum number of the colonies with the number of colonies in the control solvent is used for comparison. The smaller the quotient, the safer the test sample.

Q: Which results are given for `C=CC(=O)OCC(CC)(COC(=O)C=C)COC(=O)C=C` [Ex. 1, trimethylol propane triacrylate]?
A: Colony increase multiple: 1.2; Colony increase multiple (listed as Example 1): 1.2

Q: Which Colony increase multiple does the source give for `C=CC(=O)OCC(CC)(COC(=O)C=C)COC(=O)C=C` [Ex. 6, trimethylol propane triacrylate] here?
A: The Colony increase multiple was 2.5.

Q: And the Colony increase multiple (listed as Example 6)?
A: Its Colony increase multiple is 2.5.

Q: Which Colony increase multiple does the source give for `C=CC(=O)OCC(CC)(COC(=O)C=C)COC(=O)C=C` [Ex. 4, trimethylol propane triacrylate] here?
A: Its Colony increase multiple is 1.1.

Q: And the Colony increase multiple (listed as Example 4)?
A: The Colony increase multiple was 1.1.

Q: With `C=CC(=O)OCC(CC)(COC(=O)C=C)COC(=O)C=C` [Ex. 11, trimethylol propane triacrylate] as the compound, how does the Colony increase multiple read?
A: Its Colony increase multiple is 1.4.

Q: And the Colony increase multiple (listed as Example 11)?
A: Its Colony increase multiple is 1.4.

Q: How did the Colony increase multiple turn out when `C=CC(=O)OCC(CC)(COC(=O)C=C)COC(=O)C=C` [Ex. 12, trimethylol propane triacrylate] was run?
A: Its Colony increase multiple is 1.4.

Q: What about the Colony increase multiple (listed as Example 12) of the same compound?
A: Its Colony increase multiple is 1.4.

Q: Which results are given for `C=CC(=O)OCC(CC)(COC(=O)C=C)COC(=O)C=C` [Comp. 2, trimethylol propane triacrylate]?
A: Colony increase multiple: 2.7; Colony increase multiple (listed as Comparative Example 2): 2.7

Q: What does the source list for `C=CC(=O)OCC(CC)(COC(=O)C=C)COC(=O)C=C` [Comp. 3, trimethylol propane triacrylate]?
A: Colony increase multiple: 2.7; Colony increase multiple (listed as Comparative Example 3): 2.7

Q: What does the source list for `C=CC(=O)OCC(CC)(COC(=O)C=C)COC(=O)C=C` [Ex. 5, trimethylol propane triacrylate]?
A: Colony increase multiple: 1.4; Colony increase multiple (listed as Example 5): 1.4

Q: Which Colony increase multiple does the source give for `C=CC(=O)OCC(CC)(COC(=O)C=C)COC(=O)C=C` [Ex. 10, trimethylol propane triacrylate] here?
A: Its Colony increase multiple is 1.9.

Q: And the Colony increase multiple (listed as Example 10)?
A: Its Colony increase multiple is 1.9.

Q: For `C=CC(=O)OCC(CC)(COC(=O)C=C)COC(=O)C=C` [Comp. 1, trimethylol propane triacrylate], which Colony increase multiple is on record?
A: The Colony increase multiple was 3.4.

Q: What about the Colony increase multiple (listed as Comparative Example 1) of the same compound?
A: Its Colony increase multiple is 3.4.

Q: Which results are given for `C=CC(=O)OCC(CC)(COC(=O)C=C)COC(=O)C=C` [Ex. 3, trimethylol propane triacrylate]?
A: Colony increase multiple: 1.2; Colony increase multiple (listed as Example 3): 1.2

Q: With `C=CC(=O)OCC(CC)(COC(=O)C=C)COC(=O)C=C` [Ex. 7, trimethylol propane triacrylate] as the compound, how does the Colony increase multiple read?
A: The Colony increase multiple was 1.9.

Q: What about the Colony increase multiple (listed as Example 7) of the same compound?
A: The Colony increase multiple was 1.9.

Q: For `C=CC(=O)OCC(CC)(COC(=O)C=C)COC(=O)C=C` [Ex. 8, trimethylol propane triacrylate], which Colony increase multiple is on record?
A: Its Colony increase multiple is 2.6.

Q: And the Colony increase multiple (listed as Example 8)?
A: Its Colony increase multiple is 2.6.

Q: What does the source list for `C=CC(=O)OCC(CC)(COC(=O)C=C)COC(=O)C=C` [Ex. 9, trimethylol propane triacrylate]?
A: Colony increase multiple: 2.1; Colony increase multiple (listed as Example 9): 2.1

Q: `C=CC(=O)OCC(CC)(COC(=O)C=C)COC(=O)C=C` [Ex. 2, trimethylol propane triacrylate] was tested. Which Colony increase multiple did it give?
A: Its Colony increase multiple is 1.1.

Q: What about the Colony increase multiple (listed as Example 2) of the same compound?
A: The Colony increase multiple was 1.1.
